Laboratory results as given in paper PMC9749936, “Synthesis and structure–activity relationship studies of N-terminal analogues of the lipopeptide antibiotics brevicidine and laterocidine” (RSC Medicinal Chemistry, 2022).
Bridge positions count the residues as written; N and C are the ends. Square brackets hold non-standard residues; d marks the D form. Peptide text beside a SMILES is read from it. * marks the point of attachment. Myristoyl = CCCCCCCCCCCCCC(=O)*; dOrn = NCCC[C@@H](N)C(=O)O; Octanoyl = CCCCCCCC(=O)*; Orn = NCCC[C@H](N)C(=O)O; Hexanoyl = CCCCCC(=O)*

Experiments:
[1] = test system: S. aureus USA300; assay type: cell-based, Staphylococcus aureus; conditions: USA300, 18 h
Experimental: (§1) The minimum inhibitory concentrations (MICs) of brevicidine and laterocidine analogues were determined against a panel of clinically relevant ESKAPE pathogens; Escherichia coli (E. coli), Klebsiella pneumoniae (K. pneumoniae), Acinetobacter baumannii (A. baumannii), Pseudomonas aeruginosa (P. aeuroginosa) and Staphylococcus aureus (S. aureus), which cause the majority of nosocomial infections in the United States.[16] […] In this resistance mechanism, the polymyxin target (lipid A) is modified, reducing binding affinity. For this reason, a strain of colistin-resistant E. coli carrying the mcr-1 gene was also included in the panel. […]
(§2) IV. Antimicrobial testing
(§3) All minimum inhibitory concentrations (MICs) were determined according to Clinical and Standards Laboratory Institute (CLSI) guidelines. Blood agar plates were inoculated with glycerol stocks of E. coli ATCC 25922, K. pneumoniae ATCC 13883, A. baumannii ATCC 17961, P. aeruginosa PAO1 and S. aureus USA300. The inoculated agar plates were then incubated for 16 h at 37 °C . Individually grown colonies were subsequently used to inoculate 5 mL aliquots of TSB that were then incubated at 37 °C with shaking at 220 rpm. E. coli 25922 MCR-1 glycerol stock was used to inoculate 5 mL of TSB supplemented with kanamycin that was then incubated for 16 h at 37 °C with shaking at 220 rpm. The next day the culture was diluted 100 fold in TSB supplemented with kanamycin and incubated at 37 °C with shaking at 220 rpm. In parallel, the lipopeptide antibiotics DMSO stocks to be assessed were serially diluted with MHB in polypropylene 96-well plates (50 µL in each well). Colistin sulfate stocks were dissolved in water before being diluted with MHB. Aliquots of the inoculated TSB were incubated until an OD600 of around 0.5 was reached. The bacterial suspensions were then diluted with MHB (2 x 10^5 CFU mL-1) and added to the microplates containing the test compounds (50 µL to each well). The well-plates were sealed with an adhesive membrane and after 18 h of incubation at 37 °C with shaking at 600 rpm, the wells were visually inspected for bacterial […]
(§4) growth. MIC values reported are based on three technical replicates and defined as the lowest concentration of the compound that prevented visible growth of bacteria. […]
(§5) The values obtained from a read-out at 415 nm were corrected for background (negative control) and transformed to a percentage relative to the positive control.
(§6) VI. HPLC and HRMS analysis of peptides
(§7) Peptide Name Chemical Calcd Mass found Calcd Overall […]

[2] = test system: E. coli ATCC 25922; assay type: cell-based, Escherichia coli; conditions: ATCC 25922, 18 h
Experimental: as §1, §2, §3, §4, §5, §6, §7

[3] = test system: K. pneumoniae ATCC 13883; assay type: cell-based, Klebsiella pneumoniae; conditions: ATCC 13883, 18 h
Experimental: as §1, §2, §3, §4, §5, §6, §7

[4] = test system: Sheep red blood cells; assay type: cell-based; conditions: red cells of sheep, 1 h, 64 μg mL^−1
Experimental: Having ascertained the antimicrobial activity of all synthetic peptides against a panel of ESKAPE pathogens, we next assessed their mammalian toxicity with hemolytic assays using sheep red blood cells. The % hemolysis for all peptides at 64 μg mL^−1 was determined, with the hemolysis induced by the surfactant 0.1% Triton X-100 taken as 100%. […] Hemolysis was <1% for all analogues with a C8 chain or shorter, including the strongest antibacterial peptide C8-Lat (22). Hemolytic activity increased up to C14 (>50% for C14-Lat) and then decreased at longer chain lengths, perhaps due to decreased solubility of peptides or aggregation. […]
Phosphate-Buffered Saline (PBS) containing 0.002% Tween20 (buffer) five times. Then, the red blood cells were normalized to obtain a positive control read-out between 2.5 and 3.0 at 415 nm to stay within the linear range with the maximum sensitivity. A serial dilution of the compounds (128 – 1 µg/mL, 75 µL) was prepared in a 96-well polypropylene plate. The outer border of the plate was filled with 75 µL buffer. Each plate contained a positive control (0.1% Triton-X final concentration, 75 µL) and a negative control (buffer, 75 µL) in triplicate. The normalized blood cells (75 µL) were added and the plates were incubated at 37 °C for 1 h while shaking at 500 rpm. A flat-bottom polystyrene plate with 100 µL buffer in each well was prepared. After incubation, the plates were centrifuged (800 g for 5 min at room temperature) and 25 µL of the supernatant was transferred to their respective wells in the flat-bottom plate. The values obtained from a read-out at 415 nm were corrected for background (negative control) and transformed to a percentage relative to the positive control. […]

[5] = test system: E. coli ATCC 25922 MCR-1; assay type: cell-based, Escherichia coli; conditions: colistin-resistant strain carrying mcr-1; CLSI broth microdilution in MHB, 18 h at 37 °C, visual inspection; three technical replicates
Experimental: as §1
Colisitin sulfate was purchased from Activate Scientific. Kanamycin monosulfate was purchased from MP Biomedicals. E. coli ATCC 25922, S. aureus USA300 (ATCC BAA1717), K. pneumoniae ATCC 13883 and A. baumannii ATCC 17961 belong to the American Type Culture Collection (ATCC). P. aeruginosa PAO1 was kindly provided by L.H.C. Quarles Van Ufford, Utrecht University, Utrecht, The Netherlands. E. coli ATCC 25922 MCR-1 was transfected in house using the pGDP2-MCR1 plasmid kindly provided by Yong-Xin Li, The University of Hong Kong, Hong Kong, China. Sheep blood agar plates (Ref. PB5039A) were purchased from Thermo Scientific. Tryptic soy broth (Ref. 02-200-500) was purchased from Scharlab. Mueller-Hinton broth (Ref. X927.1) was purchased from Carl Roth. Polypropylene 96-wells plates (Ref. 3879) were purchased from Corning. […]
(10.0 mL). 2-Chlorotrityl (CT) chloride resin (2.00 g, 0.81 mmol g-1) and DIPEA (420 µL, 2.40 mmol) were added. […]
A gradient […]
method for C14 - C16 laterocidine was employed, starting at 100% solvent A for 2 min, ramping up to 70 % solvent B over 45 min, ramping up to 100% solvent B over 1 min, remaining there for 6 min before ramping down to 100% solvent A and remaining there for 5 min. High resolution mass spectrometry (HRMS) spectra of brevicidine peptides were recorded by Analytical Services and Environmental Projects (ASEP) at Queen’s University Belfast on a Waters LCT Premier ToF mass spectrometer using the electrospray ionisation (ESI) technique. HRMS spectra of laterocidine peptides were performed on a Thermo Scientific Dionex UltiMate 3000 HPLC system with a Phenomenex Kinetex C18 (2.6 µm, 2.1 x 150 mm) column at 35 °C and equipped with a diode array detector. The following solvent system, at a flow rate of 0.3 mL/min, was used: solvent A = 0.1% formic acid in water, solvent B = 0.1% formic acid in acetonitrile. A gradient method was employed, starting at 95 % solvent A and 5 % solvent B for 1 min, ramping up to 95 % solvent B over 9 min, ramping up to 98 % solvent B over 1 min, remaining there for 1 min before ramping back down to 95 % solvent A over 2 min and remaining there for 1 min.
The system was connected to a Bruker micrOTOF-Q II mass spectrometer (ESI ionization) calibrated internally with sodium […]
as §2
as §3, with “MHB.” for “MHB. Aliquots of the inoculated TSB were incubated until an OD600 of around 0.5 was reached. The bacterial suspensions were then diluted with MHB (2 x 10^5 CFU mL-1) and added to the microplates containing the test compounds (50 µL to each well). The well-plates were sealed with an adhesive membrane and after 18 h of incubation at 37 °C with shaking at 600 rpm, the wells were visually inspected for bacterial”

[6] = test system: P. aeruginosa PAO1; assay type: cell-based, Pseudomonas aeruginosa; conditions: PAO1, 18 h
Experimental: as §1, §2, §3, §4, §5, §6, §7

[7] = test system: A. baumannii ATCC 17961; assay type: cell-based, Acinetobacter baumannii; conditions: ATCC 17961, 18 h
Experimental: as §1, §2, §3, §4, §5, §6, §7

Row | SMILES | Antimicrobial activity (MIC) S. aureus USA300 [1] [µg/mL] | Antimicrobial activity (MIC) E. coli ATCC 25922 [2] [µg/mL] | Antimicrobial activity (MIC) K. pneumoniae ATCC 13883 [3] [µg/mL] | % Hemolytic activity, sheep red blood cells [4] [%] | Antimicrobial activity (MIC) E. coli ATCC 25922 MCR-1 [5] [µg/mL] | Antimicrobial activity (MIC) P. aeruginosa PAO1 [6] [µg/mL] | Antimicrobial activity (MIC) A. baumannii ATCC 17961 [7] [µg/mL]
1 | CCCCCC(=O)N[C@H](CC(N)=O)C(=O)N[C@H](Cc1ccc(O)cc1)C(=O)N[C@H](Cc1c[nH]c2ccccc12)C(=O)N[C@H](CCCN)C(=O)N[C@@H](CCCN)C(=O)NCC(=O)N[C@H](CCCN)C(=O)N[C@@H](Cc1c[nH]c2ccccc12)C(=O)N[C@@H]1C(=O)N[C@@H]([C@@H](C)CC)C(=O)NCC(=O)N[C@@H](CO)C(=O)O[C@@H]1C [Compound 12] (Hexanoyl-[dN][dY][dW][dOrn][Orn]G[dOrn]WTIGS; ester 9-C) | >32 | 8 | 4 | 0.3 | 8 | >32 | 16
2 | CCCCCC(=O)N[C@H](CO)C(=O)N[C@H](Cc1ccc(O)cc1)C(=O)N[C@H](Cc1c[nH]c2ccccc12)C(=O)N[C@H](CCCN)C(=O)N[C@@H](CCCN)C(=O)NCC(=O)N[C@H](CCCN)C(=O)N[C@@H](Cc1c[nH]c2ccccc12)C(=O)N[C@@H]1C(=O)N[C@@H]([C@@H](C)CC)C(=O)N[C@@H](CC(N)=O)C(=O)NCC(=O)NCC(=O)O[C@@H]1C [Compound 21] (Hexanoyl-[dS][dY][dW][dOrn][Orn]G[dOrn]WTINGG; ester 9-C) | >32 | 4 | 8 | 0.2 | 8 | 4 | 16
3 | CC[C@H](C)[C@@H]1NC(=O)[C@@H](NC(=O)[C@H](Cc2c[nH]c3ccccc23)NC(=O)[C@@H](CCCN)NC(=O)CNC(=O)[C@H](CCCN)NC(=O)[C@@H](CCCN)NC(=O)[C@@H](Cc2c[nH]c3ccccc23)NC(=O)[C@@H](Cc2ccc(O)cc2)NC(=O)[C@@H](CO)NC(C)=O)[C@@H](C)OC(=O)CNC(=O)CNC(=O)[C@H](CC(N)=O)NC1=O [Compound 19] (Ac-[dS][dY][dW][dOrn][Orn]G[dOrn]WTINGG; ester 9-C) | >32 | >32 | >32 | 0.2 | >32 | 16 | >32
4 | CCCCCCCCCCCCCC(=O)N[C@H](CO)C(=O)N[C@H](Cc1ccc(O)cc1)C(=O)N[C@H](Cc1c[nH]c2ccccc12)C(=O)N[C@H](CCCN)C(=O)N[C@@H](CCCN)C(=O)NCC(=O)N[C@H](CCCN)C(=O)N[C@@H](Cc1c[nH]c2ccccc12)C(=O)N[C@@H]1C(=O)N[C@@H]([C@@H](C)CC)C(=O)N[C@@H](CC(N)=O)C(=O)NCC(=O)NCC(=O)O[C@@H]1C [Compound 25] (Myristoyl-[dS][dY][dW][dOrn][Orn]G[dOrn]WTINGG; ester 9-C) | 16 | 8 | 8 | – | 8 | 8 | 2
5 | CCCCCCCC(=O)N[C@H](CO)C(=O)N[C@H](Cc1ccc(O)cc1)C(=O)N[C@H](Cc1c[nH]c2ccccc12)C(=O)N[C@H](CCCN)C(=O)N[C@@H](CCCN)C(=O)NCC(=O)N[C@H](CCCN)C(=O)N[C@@H](Cc1c[nH]c2ccccc12)C(=O)N[C@@H]1C(=O)N[C@@H]([C@@H](C)CC)C(=O)N[C@@H](CC(N)=O)C(=O)NCC(=O)NCC(=O)O[C@@H]1C [Compound 22] (Octanoyl-[dS][dY][dW][dOrn][Orn]G[dOrn]WTINGG; ester 9-C) | >32 | 2 | 2 | – | 2 | 2 | 4
